Assay [1] relates to FM3A. In words: Compound was tested for antitumor activity against FM3A/0 mammary carcinoma cells. In kind it is functional. As to conditions: Mus musculus.
The subject of assay [2] is FM3A. The assay can be described thus: Compound was tested for antitumor activity against FM3A/TK- cells. In kind it is functional. Conditions: Mus musculus.
A short description of assay [3]: Compound was tested for antiviral activity against herpes simplex virus( HSV-1-F) strain in primary rabbit kidney cells. Conditions: Oryctolagus cuniculus. The class given is functional.
Assay [4] has as its system Human alphaherpesvirus 1. In words: (§1) Compound was tested for antiviral activity against herpes simplex virus (thymidine kinase deficient herpes simplex virus ( HSV-1 (B2006) in primary rabbit kidney cells. The class given is functional.
The nature of assay [5]: Compound was tested for antiviral activity against herpes simplex virus( HSV-1-McIntyre) strain in primary rabbit kidney cells. In kind it is functional. As to conditions: Oryctolagus cuniculus.
A short description of assay [6]: Compound was tested for antiviral activity against herpes simplex virus( HSV-2-196 strain in primary rabbit kidney cells. In kind it is functional. Conditions: Oryctolagus cuniculus.
Assay [7] in a line: Compound was tested for antiviral activity against herpes simplex virus( HSV-2-G) strain in primary rabbit kidney cells. In kind it is functional. Conditions: Oryctolagus cuniculus.
Assay [8] is described as follows: Compound was tested for antiviral activity against herpes simplex virus( HSV-2-lyons) strain in primary rabbit kidney cells. In kind it is functional. Conditions: Oryctolagus cuniculus.
A short description of assay [9]: Compound was tested for antitumor activity against HSV-1 TK gene transformed TK deficient FM3A cells. In kind it is functional. Conditions: Mus musculus.
A further assay concerns MOLT-4F. In words: Compound was tested for antitumor activity against human T-lymphoblast Molt/4F cells. In kind it is functional.
Assay [10] concerns Raji. In words: Compound was tested for antitumor activity against human B-lymphoblast Raji/0 cells. The class given is functional.
The nature of assay [11]: Compound was tested for antiviral activity against […] Vassicular stomatitis in primary rabbit kidney cells. In kind it is functional. Conditions: Oryctolagus cuniculus.
Assay [12] concerns Raji. In words: Compound was tested for antitumor activity against thymidine kinase deficient human B-lymphoblast […] cells. The class given is functional.
The nature of assay [13]: Compound was tested for antiviral activity against herpes simplex virus( HSV-1-KOS) strain in primary rabbit kidney cells. In kind it is functional. As to conditions: Oryctolagus cuniculus.
A further assay concerns L1210. The assay can be described thus: Compound was tested for antitumor activity against L1210 cells. The class given is functional. Conditions: Mus musculus.
For assay [14], the system named is Human alphaherpesvirus 1. Described as §1. The class given is functional, Oryctolagus cuniculus.
Another assay is filed under the species Oryctolagus cuniculus. The assay can be described thus: Compound was tested for antiviral activity against Vaccinia virus in primary rabbit kidney cells. The class given is functional.
Assay [15] has as its system Human alphaherpesvirus 1. In words: Compound was tested for antiviral activity against herpes simplex virus (thymidine kinase deficient herpes simplex virus( HSV-1 (B2006) in primary rabbit kidney cells. The class given is functional, Oryctolagus cuniculus.
Assay [16] can be described thus: Compound was tested for antiviral activity against herpes simplex virus (HSV-1-McIntyre) strain in primary rabbit kidney cells. In kind it is functional. As to conditions: Oryctolagus cuniculus.

≈ marks a conversion by molar mass, not a printed value. Bounds are passed on as bounds.

Regarding `O=c1[nH]c(=O)n([C@@H]2C[C@H](O)[C@@H](CO)O2)cc1C=C(F)F`, the MIC50 against FM3A [1] is greater than 100 µg/mL; against FM3A [2], greater than 100 µg/mL; in assay [3], 20 µg/mL (≈ 68.9 µM); with Human alphaherpesvirus 1 [4], greater than 200 µg/mL; in assay [5], 20 µg/mL (≈ 68.9 µM); in assay [6], 100 µg/mL (≈ 345 µM). Besides, the MIC50 in assay [7] was 150 µg/mL (≈ 517 µM); in assay [8], 70 µg/mL (≈ 241 µM); in [9], greater than 100 µg/mL; against MOLT-4F it was greater than 100 µg/mL; in the assay with Raji [10], greater than 100 µg/mL; in assay [11] it was greater than 200 µg/mL. Moreover, the MIC50 in the assay on Raji [12] is greater than 100 µg/mL; in assay [13], 20 µg/mL (≈ 68.9 µM); in the assay with L1210, greater than 100 µg/mL.
With `O=c1[nH]c(=O)n([C@H]2C[C@H](O)[C@@H](CO)O2)cc1C=C(F)F`, the MIC50 with FM3A [1] is 55 µg/mL (≈ 190 µM); against FM3A [2], greater than 100 µg/mL; against Human alphaherpesvirus 1 [14] it was greater than 200 µg/mL; in [3], 0.3 µg/mL (≈ 1.03 µM); in [5], 0.3 µg/mL (≈ 1.03 µM); in assay [6], 10 µg/mL (≈ 34.5 µM). Further, the MIC50 in assay [7] turned out to be 6 µg/mL (≈ 20.7 µM); in [8], 3 µg/mL (≈ 10.3 µM); in [9], 0.25 µg/mL (≈ 0.861 µM); against MOLT-4F, 42 µg/mL (≈ 145 µM); in the assay listed under Oryctolagus cuniculus, 15 µg/mL (≈ 51.7 µM); against Raji [10] it was 33 µg/mL (≈ 114 µM). In addition, the MIC50 was greater than 200 µg/mL in assay [11], greater than 100 µg/mL in the assay on Raji [12], 0.2 µg/mL (≈ 0.689 µM) in [13] and 30 µg/mL (≈ 103 µM) against L1210.
For `O=c1[nH]c(=O)n([C@H]2C[C@H](O)[C@@H](CO)O2)cc1C=C(Br)Br`, the MIC50 in the assay with FM3A [1] was greater than 100 µg/mL; against FM3A [2], greater than 100 µg/mL; with Human alphaherpesvirus 1 [14], greater than 150 µg/mL; in assay [3], 70 µg/mL (≈ 170 µM); in [5], 20 µg/mL (≈ 48.5 µM); in assay [6], 150 µg/mL (≈ 364 µM). The MIC50 was 200 µg/mL (≈ 485 µM) in assay [7]; 200 µg/mL (≈ 485 µM) in [8]; 7 µg/mL (≈ 17 µM) in [9]; greater than 100 µg/mL in the assay with MOLT-4F; 100 µg/mL (≈ 243 µM) in the assay listed under Oryctolagus cuniculus; greater than 100 µg/mL against Raji [10]. Moreover, the MIC50 was greater than 400 µg/mL in [11], greater than 100 µg/mL with Raji [12], 20 µg/mL (≈ 48.5 µM) in assay [13] and greater than 100 µg/mL with L1210.
As to `Oc1ncc(C=C(F)F)c(O)n1`, the MIC50 against FM3A [1] was greater than 100 µg/mL; in the assay with FM3A [2], greater than 100 µg/mL; against Human alphaherpesvirus 1 [15], greater than 200 µg/mL; in assay [3], greater than 200 µg/mL; in assay [16], greater than 200 µg/mL; in assay [6], greater than 200 µg/mL. In addition, the MIC50 in [7] is greater than 200 µg/mL; in [8] it was greater than 200 µg/mL; in assay [9] it was greater than 100 µg/mL; against MOLT-4F, greater than 100 µg/mL; in the assay filed under Oryctolagus cuniculus, greater than 200 µg/mL; in the assay on Raji [10], greater than 100 µg/mL. The MIC50 in assay [11] was greater than 200 µg/mL; with Raji [12], greater than 100 µg/mL; in [13] it was greater than 200 µg/mL; against L1210, greater than 100 µg/mL.
Regarding `O=c1[nH]c(=O)n([C@H]2C[C@H](O)[C@@H](CO)O2)cc1/C=C/Br` [BRIVUDINE], the MIC50 in the assay with FM3A [1] is 13 µg/mL (≈ 39 µM); in the assay on FM3A [2], 0.4 µg/mL (≈ 1.2 µM); in the assay with Human alphaherpesvirus 1 [14] it was greater than 200 µg/mL; in assay [3], 0.02 µg/mL (≈ 0.06 µM); in assay [5], 0.02 µg/mL (≈ 0.06 µM); in assay [6], 7 µg/mL (≈ 21 µM). The MIC50 in assay [7] is 2 µg/mL (≈ 6 µM); in assay [8], 7 µg/mL (≈ 21 µM); in [9], 0.0004 µg/mL (≈ 0.0012 µM); in the assay with MOLT-4F, greater than 100 µg/mL; in the assay listed under Oryctolagus cuniculus, 20 µg/mL (≈ 60 µM); against Raji [10], 29 µg/mL (≈ 87.1 µM). The MIC50 is greater than 200 µg/mL in [11], 78 µg/mL (≈ 234 µM) in the assay on Raji [12], 0.02 µg/mL (≈ 0.06 µM) in assay [13] and 31 µg/mL (≈ 93.1 µM) with L1210.
With `O=c1[nH]c(=O)n([C@H]2C[C@H](O)[C@@H](CO)O2)cc1I` [IDOXURIDINE], the MIC50 against Human alphaherpesvirus 1 [14] was greater than 200 µg/mL; in assay [3] it was 0.2 µg/mL (≈ 0.565 µM); in assay [5], 0.3 µg/mL (≈ 0.847 µM); in assay [6] it was 3 µg/mL (≈ 8.47 µM); in assay [7], 1.5 µg/mL (≈ 4.24 µM); in assay [8] it was 1.5 µg/mL (≈ 4.24 µM). Besides, the MIC50 in the assay listed under Oryctolagus cuniculus is 0.5 µg/mL (≈ 1.41 µM); in [11], greater than 200 µg/mL; in assay [13] it was 0.15 µg/mL (≈ 0.424 µM).
